“And” between values parts separate entries of the source, which are not always exact repeats. Equal entries are not always repeated. Inconclusive results and toxic doses are left out.
Test system: BDF1 mice, B16 melanoma ip, median survival T/C
Assay: NCI In Vivo Anticancer Drug Screen. Data for tumor model B16 Melanoma (intraperitoneal) in B6D2F1 (BDF1) mice
Details: endpoint: median survival time, higher = longer survival
Summary of the method: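 Values are ratios of treated (T) to vehicle-control (C) measurements of survival or tumor size in tumor-bearing mice.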

[1] = dose: 100.0 mg/kg/injection, schedule: Q01DX009 (ip), vehicle: Klucel (hydroxypropylcellulose) (HPC)
[2] = dose: 200.0 mg/kg/injection, schedule: Q01DX009 (ip), vehicle: Klucel (hydroxypropylcellulose) (HPC)
[3] = dose: 400.0 mg/kg/injection, schedule: Q01DX009 (ip), vehicle: Klucel (hydroxypropylcellulose) (HPC)
[4] = dose: 100.0 mg/kg/injection, schedule: Q01DX009 (ip), vehicle: saline with Tween-80
[5] = dose: 200.0 mg/kg/injection, schedule: Q01DX009 (ip), vehicle: saline with Tween-80
[6] = dose: 400.0 mg/kg/injection, schedule: Q01DX009 (ip), vehicle: saline with Tween-80
[7] = dose: 12.5 mg/kg/injection, schedule: Q01DX009 (ip), vehicle: saline with Tween-80
[8] = dose: 25.0 mg/kg/injection, schedule: Q01DX009 (ip), vehicle: saline with Tween-80
[9] = dose: 50.0 mg/kg/injection, schedule: Q01DX009 (ip), vehicle: saline with Tween-80
[10] = dose: 25.0 mg/kg/injection, schedule: Q01DX009 (ip), vehicle: Klucel (hydroxypropylcellulose) (HPC)
[11] = dose: 12.5 mg/kg/injection, schedule: Q01DX009 (ip), vehicle: Klucel (hydroxypropylcellulose) (HPC)

## O=[N+]([O-])c1ccc(Oc2ccc(Cl)cc2)cc1
[1]
  T/C: 93 % of control
[2]
  T/C: 93 % of control
[3]
  T/C: 100 % of control

## Cc1ccc(Cl)cc1NC(=O)Nc1ccc(C)c(NC(=O)Nc2cc(Cl)ccc2C)c1
[4]
  T/C: 90 % of control
[5]
  T/C: 95 % of control
[6]
  T/C: 90 % of control

## CCOC(Cl)CCl (stereo not given)
[7]
  T/C: 97 % of control
[8]
  T/C: 102 % of control

## COc1cccc(NC(=O)Nc2ccccc2OC)c1
[1]
  T/C: 86 % of control
[2]
  T/C: 90 % of control
[3]
  T/C: 93 % of control

## Cc1ccc(C(=O)NC2C(=O)NC(C(C)C)C(=O)N3CCCC3C(=O)N(C)CC(=O)N(C)C(C(C)C)C(=O)OC2C)c2c1Oc1c(c(C(=O)NC3C(=O)NC(C(C)C)C(=O)N4CCCC4C(=O)N(C)CC(=O)N(C)C(C(C)C)C(=O)OC3C)c3nc(CF)c(=O)oc3c1C)N2 (stereo not given)
dose: 0.13 mg/kg/injection, schedule: Q04DX003 (ip), vehicle: saline + alcohol
  T/C: 154 % of control
dose: 0.25 mg/kg/injection, schedule: Q04DX003 (ip), vehicle: saline + alcohol
  T/C: 164 % of control
dose: 31.25 micrograms/kg/injection, schedule: Q04DX003 (ip), vehicle: water
  T/C: 112 % of control
dose: 125.0 micrograms/kg/injection, schedule: Q04DX003 (ip), vehicle: water
  T/C: 180 % of control
dose: 250.0 micrograms/kg/injection, schedule: Q04DX003 (ip), vehicle: water
  T/C: 170 % of control
dose: 500.0 micrograms/kg/injection, schedule: Q04DX003 (ip), vehicle: water
  T/C: 175 % of control

## OC1(c2ccccc2)c2ccc(Br)cc2-c2cc(Br)ccc21
[4]
  T/C: 92 % of control
[5]
  T/C: 88 % of control

## CCCCCCC(=O)CC(SCC)c1ccccc1Cl (stereo not given)
[8]
  T/C: 107 % of control
[9]
  T/C: 107 % of control
[4]
  T/C: 107 % of control
[5]
  T/C: 100 % of control
[6]
  T/C: 91 % of control

## O=C(Nc1ccc(C(=O)O)cc1)Oc1ccc(N(CCCl)CCCl)cc1
dose: 3.13 mg/kg/injection, schedule: Q04DX003 (ip), vehicle: saline with Tween-80
  T/C: 109 % of control
dose: 6.25 mg/kg/injection, schedule: Q04DX003 (ip), vehicle: saline with Tween-80
  T/C: 109 % of control
[7]
  T/C: 165 % of control
dose: 12.5 mg/kg/injection, schedule: Q04DX003 (ip), vehicle: saline with Tween-80
  T/C: 123 % of control
[10]
  T/C: 154 % of control
[8]
  T/C: 110 % of control
dose: 25.0 mg/kg/injection, schedule: Q04DX003 (ip), vehicle: saline with Tween-80
  T/C: 151 % of control
dose: 50.0 mg/kg/injection, schedule: Q04DX003 (ip), vehicle: saline with Tween-80
  T/C: 164 % of control
dose: 100.0 mg/kg/injection, schedule: Q04DX003 (ip), vehicle: saline with Tween-80
  T/C: 205 % of control

## CCCCCCCCCCCC(c1ccccc1)[N+](C)(C)C (stereo not given)
dose: 1.0 mg/kg/injection, schedule: Q01DX009 (ip), vehicle: saline sonified
  T/C: 105 % of control
dose: 2.0 mg/kg/injection, schedule: Q01DX009 (ip), vehicle: saline sonified
  T/C: 110 % of control
dose: 4.0 mg/kg/injection, schedule: Q01DX009 (ip), vehicle: saline sonified
  T/C: 105 % of control
dose: 8.0 mg/kg/injection, schedule: Q01DX009 (ip), vehicle: saline sonified
  T/C: 100 % of control

## C[n+]1ccc(Nc2ccc(NC(=O)c3ccc(Nc4cc[n+](C)c5ccc(N)cc45)cc3)cc2)cc1
dose: 0.5 mg/kg/injection, schedule: Q01DX009 (ip), vehicle: Klucel (hydroxypropylcellulose) (HPC)
  T/C: 105 % of control
dose: 1.0 mg/kg/injection, schedule: Q01DX009 (ip), vehicle: Klucel (hydroxypropylcellulose) (HPC)
  T/C: 98 % of control and 101 % of control
dose: 1.0 mg/kg/injection, schedule: Q02DX009 (ip), vehicle: Klucel (hydroxypropylcellulose) (HPC)
  T/C: 100 % of control and 116 % of control
dose: 2.0 mg/kg/injection, schedule: Q01DX009 (ip), vehicle: Klucel (hydroxypropylcellulose) (HPC)
  T/C: 105 % of control and 108 % of control and 111 % of control
dose: 2.0 mg/kg/injection, schedule: Q02DX009 (ip), vehicle: Klucel (hydroxypropylcellulose) (HPC)
  T/C: 106 % of control and 112 % of control
dose: 4.0 mg/kg/injection, schedule: Q01DX009 (ip), vehicle: Klucel (hydroxypropylcellulose) (HPC)
  T/C: 103 % of control and 111 % of control and 120 % of control
dose: 4.0 mg/kg/injection, schedule: Q02DX009 (ip), vehicle: Klucel (hydroxypropylcellulose) (HPC)
  T/C: 109 % of control and 112 % of control
dose: 8.0 mg/kg/injection, schedule: Q01DX009 (ip), vehicle: Klucel (hydroxypropylcellulose) (HPC)
  T/C: 109 % of control and 123 % of control and 124 % of control
dose: 8.0 mg/kg/injection, schedule: Q02DX009 (ip), vehicle: Klucel (hydroxypropylcellulose) (HPC)
  T/C: 107 % of control and 118 % of control
dose: 16.0 mg/kg/injection, schedule: Q02DX009 (ip), vehicle: Klucel (hydroxypropylcellulose) (HPC)
  T/C: 98 % of control and 110 % of control

## CC(O)c1cccnc1 (stereo not given)
dose: 10.0 mg/kg/injection, schedule: Q01DX009 (ip), vehicle: saline
  T/C: 122 % of control
dose: 20.0 mg/kg/injection, schedule: Q01DX009 (ip), vehicle: saline
  T/C: 116 % of control
dose: 40.0 mg/kg/injection, schedule: Q01DX009 (ip), vehicle: saline
  T/C: 122 % of control

## CC(C)(O)C(C)(O)c1cccc(Cl)c1 (stereo not given)
[11]
  T/C: 107 % of control
[10]
  T/C: 102 % of control
dose: 50.0 mg/kg/injection, schedule: Q01DX009 (ip), vehicle: Klucel (hydroxypropylcellulose) (HPC)
  T/C: 88 % of control

## CC(C)C(=O)[O][Sn]([c]1ccccc1)([c]1ccccc1)[c]1ccccc1
dose: 3.0 mg/kg/injection, schedule: Q01DX009 (ip), vehicle: saline with Tween-80
  T/C: 108 % of control
dose: 6.0 mg/kg/injection, schedule: Q01DX009 (ip), vehicle: saline with Tween-80
  T/C: 105 % of control
dose: 12.0 mg/kg/injection, schedule: Q01DX009 (ip), vehicle: saline with Tween-80
  T/C: 124 % of control
[7]
  T/C: 100 % of control

## CC(=O)OCCN1CC1
dose: 3.12 mg/kg/injection, schedule: Q01DX009 (ip), vehicle: saline
  T/C: 109 % of control
dose: 6.25 mg/kg/injection, schedule: Q01DX009 (ip), vehicle: saline
  T/C: 103 % of control
dose: 12.5 mg/kg/injection, schedule: Q01DX009 (ip), vehicle: saline
  T/C: 100 % of control
dose: 25.0 mg/kg/injection, schedule: Q01DX009 (ip), vehicle: saline
  T/C: 95 % of control

## CN(C)S(=O)(=O)Nc1cc(Cl)c(NS(=O)(=O)N(C)C)cc1Cl
[1]
  T/C: 92 % of control
[2]
  T/C: 100 % of control
[3]
  T/C: 89 % of control

## COC(=O)c1[nH]cnc1/N=N/N(C)C
dose: 3.75 mg/kg/injection, schedule: Q01DX009 (ip), vehicle: saline
  T/C: 121 % of control
dose: 15.0 mg/kg/injection, schedule: Q01DX009 (ip), vehicle: saline
  T/C: 121 % of control

## CCCCCCCCCCCCCCCCCC(=O)Nc1ccn(C2OC(CO)C(O)C2O)c(=O)n1 (stereo not given)
[7]
  T/C: 154 % of control
[8]
  T/C: 165 % of control and 203 % of control

## CCCCCC[N+](CCCCCC)(CCCCCC)CCCCCC
dose: 0.75 mg/kg/injection, schedule: Q01DX009 (ip), vehicle: Klucel (hydroxypropylcellulose) (HPC)
  T/C: 88 % of control
dose: 1.5 mg/kg/injection, schedule: Q01DX009 (ip), vehicle: Klucel (hydroxypropylcellulose) (HPC)
  T/C: 90 % of control

## S=C([S][Sn]([c]1ccccc1)([c]1ccccc1)[c]1ccccc1)N1CCOCC1
dose: 1.56 mg/kg/injection, schedule: Q01DX009 (ip), vehicle: saline with Tween-80
  T/C: 107 % of control
dose: 3.13 mg/kg/injection, schedule: Q01DX009 (ip), vehicle: saline with Tween-80
  T/C: 100 % of control
dose: 6.25 mg/kg/injection, schedule: Q01DX009 (ip), vehicle: saline with Tween-80
  T/C: 110 % of control

## C=CCOCCN1CCN(CCCN2c3ccccc3Sc3ccc(C(F)(F)F)cc32)CC1
dose: 0.31 mg/kg/injection, schedule: Q01DX009 (ip), vehicle: saline
  T/C: 102 % of control
dose: 0.62 mg/kg/injection, schedule: Q01DX009 (ip), vehicle: saline
  T/C: 95 % of control
dose: 0.78 mg/kg/injection, schedule: Q01DX009 (ip), vehicle: saline
  T/C: 102 % of control
dose: 1.56 mg/kg/injection, schedule: Q01DX009 (ip), vehicle: saline
  T/C: 114 % of control

## Cc1ccccc1N1C(=O)CSC1=S
[11]
  T/C: 90 % of control
[10]
  T/C: 93 % of control

## Clc1ccc2c(c1)/C(=C/c1cccnc1)c1cc(Cl)cc(Cl)c1-2
[9]
  T/C: 86 % of control

## CCCCN(CCCC)/N=C\C1=C2NC(=O)/C(C)=C\C=C/C(OC)C(OC(N)=O)/C(C)=C/C(C)C(O)C(OC)CC(C)CC(=C(OC)C1=O)C2=O (stereo not given)
dose: 12.5 mg/kg/injection, schedule: Q01DX005 (ip), vehicle: other
  T/C: 103 % of control
dose: 25.0 mg/kg/injection, schedule: Q01DX005 (ip), vehicle: other
  T/C: 94 % of control
dose: 50.0 mg/kg/injection, schedule: Q01DX005 (ip), vehicle: other
  T/C: 90 % of control
dose: 100.0 mg/kg/injection, schedule: Q01DX005 (ip), vehicle: other
  T/C: 95 % of control
dose: 200.0 mg/kg/injection, schedule: Q01DX005 (ip), vehicle: other
  T/C: 93 % of control

From PubChem BioAssay AID192 (DTP/NCI, 2004)
